Test results from US8993624B2, “Method of preventing and treating inflammatory diseases and disorders with abscisic acid” (Virginia Tech Intellectual Properties, Inc., priority 2010, dated 2015).

Assays:
PPAR γ [1] = test: LANCL2 siRNA and PPAR γ co-transfections in RAW macrophages; type: cell-based
Method: LANCL2 siRNA and PPAR γ co-transfections—RAW macrophages were transfected with the PPAR γ plasmid as described in the preceding section with or without LANCL2 siRNA. Specifically, RAW macrophages were then co-transfected with 0.2-μg plasmid DNA and 0.25 μL LANCL2 siRNA (20 μM) per well using the Lipofectamine 2000 transfection reagent (Invitrogen). […] After incubation, RAW macrophages were harvested in reporter lysis reagent and luciferase activity was determined as described above. LANCL2 mRNA was measured by RT-PCR in control wells to assess the efficiency of knockdown.

macrophages = test: Intracellular cAMP in macrophages; type: cell-based, mouse; conditions: 10 minutes
Method: Intracellular cAMP in CD3/CD28-stimulated splenocytes and LPS-stimulated macrophages—Spleens were excised from C57BL6/J mice under sterile conditions. Cells were released by disrupting the tissue between frosted glass slides and red blood cells were lysed with erythrocyte lysis buffer. Splenocytes were enumerated with a Coulter Counter (Beckman Coulter, Fullerton, Calif.) and seeded in cRPMI at 1×10^6/ml onto 24-well plates pre-coated with anti-mouse CD3 (5 μg/mL; BD Pharmingen) and anti-mouse CD28 (1 μg/mL; BD Pharmingen). […] For intracellular assessment of cAMP, cells were harvested into 0.1 M HCl and the lysates were collected. The cAMP concentration of the lysates was determined using an EIA kit (Assay Designs, Ann Arbor, Mich.).

NF-κB = NF-κB activity in spleens of LPS-challenged mice; type: in vivo, mouse; conditions: spleen
Method: (§1) NF-κB and NFAT activities—Spleens were diced into smaller pieces in lysis buffer containing dithiothreitol and a protease inhibitor cocktail and then further disrupted using a dounce ground glass homogenizer at 4° C. Nuclear extraction for tissue homogenate and BMM was performed using the Nuclear Extract kit (Active Motif, Carlsbad, Calif.) per the manufacturer's instructions. The extracts were used to perform a Bradford-based assay for quantifying the protein concentrations and stored at −80° C. NF-κB and NFATc1 activities were measured as previously described (13) by using the Trans-AM™ NF-κB p65 and the Trans-AM™ NFATc1 ELISA-based assays (Active Motif), respectively per the manufacturer's instructions.

NFATc1 = NFATc1 activity in spleens of LPS-challenged mice; type: in vivo, mouse; conditions: spleen
Method: as §1

NF-κB p65 = NF-κB p65 activity in BMM stimulated with LPS/IFN-γ; type: cell-based, mouse
Method: Bone Marrow-derived Macrophage (BMM) Cultures—Bone marrow cells from PPAR γ flfl; MMTV-Cre− (flfl-Cre−) and flfl-Cre+ mice were cultured in DMEM with M-CSF (50 ng/ml) for 7 days. Fresh media with M-CSF was added on day 3. […] Following differentiation macrophages were directly stimulated with LPS (100 ng/ml) as previously described for 12 hours (21). ABA was added to macrophage cultures at a concentration of 2.5 μM. […]
as §1, with “Nuclear extraction for tissue homogenate and BMM was performed using the Nuclear Extract kit (Active Motif, Carlsbad, Calif.) per the manufacturer's instructions.” left out

lymphocytes = test: IL-2 production and lymphocyte proliferation (unpublished data); type: cell-based
Influenza A/Udorn (H3N2) [2] = test: Dietary (prophylactic) ABA, influenza virus challenge in mice; type: in vivo, mouse; conditions: for survival: ABA diet
Influenza A/Udorn (H3N2) [3] = test: Post-exposure ABA by gavage, Influenza A/Udorn challenge in mice; type: in vivo, mouse
A/California/09 (H1N1) = test: Post-exposure ABA by gavage, A/California/09 (H1N1) challenge in mice; type: in vivo, mouse
[4] = test system: inactivated influenza virus PR8 antigens; test: Lymphocyte proliferation after influenza virus vaccination of mice; type: in vivo, mouse
PPAR γ [5] = molecular target: T1, PPAR γ (Mus musculus, UniProt P37238); conditions: racemic mixture, 3T3-L1 preadipocytes; cited from earlier work
T1 construct: host or cells: 3T3-L1 preadipocytes
T1 sequence (P37238 1-505): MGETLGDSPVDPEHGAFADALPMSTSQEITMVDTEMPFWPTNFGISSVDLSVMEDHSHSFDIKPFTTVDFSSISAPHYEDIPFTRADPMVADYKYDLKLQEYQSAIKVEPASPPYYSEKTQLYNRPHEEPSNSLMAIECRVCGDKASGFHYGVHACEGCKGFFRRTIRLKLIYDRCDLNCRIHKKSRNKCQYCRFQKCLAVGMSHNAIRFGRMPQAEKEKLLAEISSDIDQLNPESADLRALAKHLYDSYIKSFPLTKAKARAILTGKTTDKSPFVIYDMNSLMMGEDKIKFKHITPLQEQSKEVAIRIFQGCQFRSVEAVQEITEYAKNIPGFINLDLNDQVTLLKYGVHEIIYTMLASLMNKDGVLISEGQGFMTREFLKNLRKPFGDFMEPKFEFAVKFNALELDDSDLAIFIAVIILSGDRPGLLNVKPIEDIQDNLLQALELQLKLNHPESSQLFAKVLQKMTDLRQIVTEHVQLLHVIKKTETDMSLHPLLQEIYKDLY

[6] = test system: LPS-induced splenic gene expression; test: LPS challenge in mice, spleen real-time qRT-PCR
[7] = test system: LPS-induced splenic gene expression; test: LPS challenge in mice, spleen microarray and network analysis
From the text: Microarray data analysis—After homogenization of spleens, total RNA was extracted and purified using the RNAeasy system according to manufacturer's instructions (Qiagen Valencia, Calif.). The QIAGEN RNase-free DNase supplement kit was used to ensure that the RNA was free from DNA contamination. RNA was then processed and labeled according to the standard target labeling protocols and the samples were hybridized, stained, and scanned per standard Affymetrix protocols at VBI core laboratory on Mouse 430 2.0 expression arrays (Affymetrix Inc., Santa Clara, Calif.). All statistical analysis of the data was performed within the R statistical environment—Version 2.9.0 (24) using Bioconductor packages (25)]. Raw microarray data from CEL files were read with ‘affy’ package (26) and pre-processed by gcRMA algorithm (GC Robust Multiarray Average) that performs the three steps: (i) adjustment of the gene expression signal against the background caused by optical noise and non-specific binding, (ii) robust multi-array normalization (27), and (iii) summarization of the probes belonging to each probe set. Empirical Bayes adjustment was applied and p-values were corrected for multiple testing. […] The selected list of genes was analysed with hypergeometric testing that applies Fisher's exact test to find association between interesting genes and membership within the KEGG pathway(s).
The experiment followed a 2×2 factorial design with 2 factors: LPS and ABA, each with 2 levels: absence and presence. Thus there were four groups of mice: LPS & ABA, LPS & control, no LPS & control, no LPS & ABA. The design matrix, constructed in the package ‘limma’, defined coefficients for LPS main effect, ABA main effect and the interaction effect. […] These 43 probe sets were uploaded to IPA8.0 for Ingenuity Pathway Analysis (Ingenuity Systems, Redwood City, Calif.).

[8] = 100 mg/kg oral gavage once daily 10 days, from 4 hours post-infection
[9] = mice lacking PPAR γ in immune cells
[10] = network analysis, LPS challenged mice

CC1=CC(=O)CC(C)(C)C1(O)/C=C/C(C)=C\C(=O)O (racemic) [ABA, abscisic acid]
PPAR γ reporter activity (PPAR γ [1]; normal LANCL2, ABA 1.25-10 μM, Ros 1 or 10 μM, vs untreated cells): significantly elevated PPAR γ
PPAR γ reporter activity (PPAR γ [1]; with LANCL2 siRNA): neither ABA nor Ros significantly affected PPAR γ activity
concentration at cAMP peak (macrophages): 2.5 µM
cAMP peak over control (macrophages; 2.5 μM): 10%
NF-κB activity (NF-κB): did not affect
LPS-mediated activation of NFATc1 (NFATc1): significantly decreased
NF-κB p65 activity in nuclear extracts (NF-κB p65; 2.5 μM ABA, PPAR γ-expressing primary macrophages): significantly decreased
NF-κB activity (NF-κB p65; macrophages with loss of PPAR γ): further activation induced by ABA
IL-2 production (lymphocytes): increases
lymphocyte proliferation (lymphocytes): increases
survival (Influenza A/Udorn (H3N2) [2]; WT mice): 100%
maximum loss of original body weight (Influenza A/Udorn (H3N2) [2]; WT mice, ABA diet 100 mg/kg of diet): 5%
lung MCP-1 mRNA expression (Influenza A/Udorn (H3N2) [2]; WT mice, vs control diet): consistently lower levels of MCP-1 mRNA expression
extent of vascular infiltrates (Influenza A/Udorn (H3N2) [2]; WT, vs control diet): diminished
infiltration of respiratory airways (Influenza A/Udorn (H3N2) [2]; WT, vs control diet): diminished
lung MCP-1 mRNA expression (Influenza A/Udorn (H3N2) [2]; cKO mice): failed to down-regulate MCP-1 expression
beneficial effect on lung inflammatory cell infiltration (Influenza A/Udorn (H3N2) [2]; cKO mice fed ABA): abrogated
survival (Influenza A/Udorn (H3N2) [2]; cKO mice): 71.2%
viral loads in the lungs (Influenza A/Udorn (H3N2) [2]; day 4 post-infection): no significant differences
expression of PPAR γ in BAL-derived cells (Influenza A/Udorn (H3N2) [2]; healthy non-infected WT mice, 36 days): significantly increased
epithelial recovery (Influenza A/Udorn (H3N2) [2]; lung histopathology): neither did it have any effect
extent of epithelial necrosis (Influenza A/Udorn (H3N2) [2]; lung histopathology, days 2, 4, 7): did not affect
weight loss (Influenza A/Udorn (H3N2) [2]; mice with defective PPAR γ expression in immune and epithelial cells (cKO)): behaved similar to WT mice fed the control diet
weight loss (Influenza A/Udorn (H3N2) [3]; 50 mg/kg): slightly suppressed weight loss, although the differences were not statistically significant
weight loss and recovery (Influenza A/Udorn (H3N2) [3]; [8]): suppressed weight loss for both strains and accelerated recovery
accumulation of pro-inflammatory tipDC in lung (Influenza A/Udorn (H3N2) [3]; 100 mg/kg, 7 dpi, FACS): lowered the accumulation of pro-inflammatory tipDC
expression of MCP-1 in lungs (Influenza A/Udorn (H3N2) [3]; 3 and 7 dpi): lowered expression of MCP-1
pulmonary angiopoietin like 4 (ANGIOPL4) mRNA expression (Influenza A/Udorn (H3N2) [3]; day 7 post-infection): upregulated
pulmonary interleukin-10 (IL-10) mRNA expression (Influenza A/Udorn (H3N2) [3]; day 7 post-infection): upregulated
pulmonary 5-LOX activating protein (FLAP) expression (Influenza A/Udorn (H3N2) [3]; day 10 post-infection): upregulation
pulmonary 5-lipooxygenase (5-LOX) expression (Influenza A/Udorn (H3N2) [3]; day 10 post-infection): upregulation
pulmonary LANCL2 expression (Influenza A/Udorn (H3N2) [3]; day 10 post-infection): upregulation
pulmonary PPAR γ expression (Influenza A/Udorn (H3N2) [3]; day 10 post-infection): upregulation
epithelial necrosis (Influenza A/Udorn (H3N2) [3]; lung, WT): ameliorated
mucosal and submucosal inflammatory cell infiltration (Influenza A/Udorn (H3N2) [3]; lung, WT): ameliorated
perivascular cuffing (Influenza A/Udorn (H3N2) [3]; lung, WT): ameliorated
terminal airway infiltration (Influenza A/Udorn (H3N2) [3]; lung, WT): ameliorated
beneficial effects on lung inflammatory lesions (Influenza A/Udorn (H3N2) [3]; mice lacking PPAR γ in myeloid cells (myeloid KO)): abrogated
weight loss and recovery (A/California/09 (H1N1); [8]): suppressed weight loss for both strains and accelerated recovery
glucose tolerance (A/California/09 (H1N1); lean and obese mice infected with H1N1): ameliorated glucose tolerance
glucose tolerance (A/California/09 (H1N1); uninfected control mice): ameliorated glucose tolerance
MCP-1 expression in white adipose tissue (A/California/09 (H1N1); uninfected mice): down-regulated MCP-1 expression
antigen-specific lymphoproliferative recall responses ([4]; ABA diet 100 mg/kg, days 14 and 21 post-vaccination): increased
immunostimulatory effect on responses to influenza vaccination [4, 9]: attenuated
PPAR γ activation (PPAR γ [5]): activates PPAR γ
iNOS mRNA expression ([6]; data not shown): no effect
effects of ABA on splenic gene expression [6, 9]: abrogated
NCOA6 mRNA expression ([6]; regardless of the LPS challenge): increased
Glut4 mRNA ([6]; spleen, LPS challenge): mitigated the LPS-mediated suppression
PPAR γ mRNA ([6]; spleen, LPS challenge): mitigated the LPS-mediated suppression
TNF-α mRNA ([6]; spleen, LPS challenge): suppressed LPS-mediated up-regulation
magnitude of LPS-modulated gene expression (fold-change) ([7]; 64 genes, spleen): attenuated
ABA effect on LPS-induced gene expression ([7]; absence of functional immune cell PPAR γ): impaired (or abrogated)
nuclear receptors (PPAR γ, PPAR α, RXRα, RXRβ) [7, 10]: up-regulation
pro-inflammatory genes (IL-6, IL-1β, MIF and IFN-γ) [7, 10]: down-regulation
expression of IL-6, IFN-γ, TNF-α induced protein 2 and chemokine ligand 11 ([7]; spleen, 6 hours post LPS): down-regulated
